Among the test systems are BT-549; MDA-N; Hs-578T; XF498; LXFL 529; DLD-1; M19-MEL.
Experiment in all cases: growth of human tumour cells (NCI), 48 h

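Briefly, cells in 96-well plates were exposed to five compound concentrations for 48 h, and endpoints were estimated by linear interpolation. GI50 is the concentration that inhibits growth by half.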 The source made the active and inactive calls. Cut-off read from the data, not from the text of the source: active = GI50 up to about 1.1 µM and inactive = higher.

As to `O=c1c2nc[nH]c2n(-c2ccccc2)c(=S)n1-c1ccccc1`, the GI50 in the test with BT-549 was > 100 µM (inactive).
With `CO[C@H]1[C@@H](O)[C@@H](C)O[C@@H](O[C@H]2CC[C@@]3(C)[C@H](CC[C@@H]4[C@@H]3CC[C@]3(C)[C@@H](C5=CC(=O)OC5)CC[C@]43O)C2)[C@@H]1O` [ODOROSIDE H], the GI50 with MDA-N was 0.00767 µM (active); in the test with Hs-578T it was 0.00454 µM (active); in the test with BT-549, 0.00514 µM (active).
As to `CCN1CCC(O)(c2ccc(Cl)c(Cl)c2)C(C(=O)c2ccc(Cl)c(Cl)c2)C1` (stereo not drawn), the GI50 was 19.2 µM (inactive) in the test on XF498, 16.2 µM (inactive) in the test with LXFL 529 and 17.8 µM (inactive) with DLD-1.
Consider `OCCC/N=C1N=C(Cl)/C(=C\c2ccccc2)N\1`, for which the GI50 with MDA-N and in the test on Hs-578T was > 100 µM (inactive) in each case.
For the molecule `Cc1nnc2n1-c1ccccc1C(=S)N1CSCC21` (stereo not drawn), the GI50 with MDA-N, in the test with Hs-578T and in the test with BT-549 was > 100 µM (inactive) throughout.
With `O=C1C2CCCCC2C(=O)N1n1c(Cc2ccc(Cl)cc2)n[nH]c1=O` (stereo not drawn), the GI50 in the test on MDA-N, in the test with Hs-578T and with BT-549 was > 100 µM (inactive) throughout.
Consider `O=C1c2ccccc2C(=O)N1n1c(Cc2ccc(Cl)cc2)n[nH]c1=O`, for which the GI50 in the test with MDA-N, in the test on Hs-578T and in the test with BT-549 was > 100 µM (inactive) throughout.
In the case of `Fc1cccc(F)c1C1SCc2nc3cc(Cl)c(Cl)cc3n21` (stereo not drawn), the GI50 in the test on MDA-N, in the test on Hs-578T and in the test with BT-549 was > 100 µM (inactive) in each case.
With `O=C1C=Cc2c(Br)sc(Br)c21`, the GI50 with MDA-N is 30.1 µM (inactive); with Hs-578T, 29.2 µM (inactive); with BT-549, 27.3 µM (inactive).
For `O/N=C(/CC(O)(C(F)(F)F)C(F)(F)F)c1ccccc1`, in that order: > 10 µM (inactive), > 10 µM (inactive) and > 10 µM (inactive).
In the case of `Nc1ccc2ccc(-c3ccc[nH]3)nc2n1`, the GI50 in the test with MDA-N and with BT-549 was > 100 µM (inactive) throughout.
As for `CNC(=O)Oc1ccc(C(=S)Nc2ccc(Br)cc2)cc1`, the GI50 in the test with MDA-N was 22.2 µM (inactive); in the test on Hs-578T, 19.8 µM (inactive); with BT-549, 17.1 µM (inactive).
Consider `CN1CCN(Cn2nc(-c3ccccc3)n(/N=C/c3ccc(-c4ccc(Cl)cc4Cl)o3)c2=S)CC1`, for which the GI50 in the test with MDA-N was 13.4 µM (inactive); in the test on Hs-578T, 7.91 µM (inactive).
Turning to `CC(C)(C)OC(=O)NC(CCCCNC(=O)OCc1ccccc1)C(=O)NC(CCCCNC(=O)OCc1ccccc1)C(=O)ON1C(=O)CCC1=O` (stereo not drawn), the GI50 in the test with MDA-N, with Hs-578T and in the test with BT-549 was > 100 µM (inactive) in each case.
In the case of `CSc1c(CC(=O)Nc2ccc(Cl)cc2)n(Cc2ccccc2)c2ccccc12`, the GI50 in the test on MDA-N is 76.4 µM (inactive); with Hs-578T it was 14.4 µM (inactive); with BT-549, 15.1 µM (inactive).
Take `COc1ccc(Cl)cc1NC(=O)O/N=C(\Cl)C(C)C`: the GI50 with MDA-N is 11.4 µM (inactive); in the test on Hs-578T, 23.7 µM (inactive); with BT-549, 2.56 µM (inactive).
On to `CCOC(=O)C1=C(N2CCCC2)C(=O)C(C(=O)OCC)C1` (stereo not drawn), for which the GI50 in the test on MDA-N and in the test with BT-549 was > 100 µM (inactive) throughout.
On to `Cc1ccc(S(=O)(=O)Nn2c(S)c(C#N)c(-c3ccc([N+](=O)[O-])cc3)c(C#N)c2=O)cc1`, for which the results for the GI50 in the test on MDA-N, in the test on Hs-578T and with BT-549 were 26.1 µM (inactive), 32.4 µM (inactive) and 12.8 µM (inactive), respectively.
Take `COc1ccc2nc3c([N+](=O)[O-])ccc4c3c(c2c1)N=CN4CCN(C)C`: the GI50 in the test on MDA-N was 4.71 µM (inactive); in the test with Hs-578T, 6.73 µM (inactive); in the test with BT-549, 12 µM (inactive).
Turning to `C[C@]12CC(C#N)C(=O)C(O)=C1CC[C@@H]1C2CC[C@@]2(C)C1CC[C@@H]2O` (stereo partly drawn), the GI50 was 18.8 µM (inactive) in the test on XF498, 65.5 µM (inactive) in the test on LXFL 529 and 58.3 µM (inactive) with DLD-1.
`CN1CC2=C(OC(N)=C(C#N)C2c2cccs2)/C(=C/c2cccs2)C1` (stereo not drawn): the GI50 in the test on MDA-N was 5.64 µM (inactive); in the test on Hs-578T it was > 100 µM (inactive); with BT-549, 5.62 µM (inactive).
In the case of `C/C(=N\C1CCCCC1)c1ccccc1O`, the GI50 in the test on MDA-N and in the test with BT-549 was > 100 µM (inactive) throughout.
On to `COCc1nc2c(OC)c(-c3nc4ccc(N5CCN(C)CC5)cc4[nH]3)cc(OC)c2[nH]1`, for which the GI50 in the test with MDA-N is 33.1 µM (inactive); in the test on Hs-578T, 69.8 µM (inactive); in the test with BT-549 it was > 100 µM (inactive).
`CC1=Nc2ccccc2/C1=C\c1c(C)[nH]c2ccccc12`: the GI50 is 6.75 µM (inactive) in the test with MDA-N, 8.63 µM (inactive) in the test with Hs-578T and 3.55 µM (inactive) with BT-549.
Consider `CN(C)c1ccc(-c2ccc(N(C)C)c3n[se]nc23)c2n[se]nc12`, for which the figures for the GI50 in the test on MDA-N, in the test on Hs-578T and in the test on BT-549 were > 100 µM (inactive), 88.1 µM (inactive) and > 100 µM (inactive), respectively.
On to `c1ccc2cc(CN3CCC(C4CCN(Cc5ccc6ccccc6c5)CC4)CC3)ccc2c1`, for which the GI50 in the test with MDA-N was 1.96 µM (inactive); in the test with Hs-578T, 2.49 µM (inactive); in the test on BT-549, 10.3 µM (inactive).
Consider `O=C(CC(NC(=O)OCc1ccccc1)C(=O)NC1Cc2ccccc2C1=O)OCc1ccccc1` (stereo not drawn), for which the values for the GI50 in the test with MDA-N, in the test on Hs-578T and in the test with BT-549 were > 100 µM (inactive), 84.3 µM (inactive) and > 100 µM (inactive), respectively.
Regarding `CCCNC(=O)N(C)C(=O)N1N=C(c2ccccc2)C1c1ccccc1` (stereo not drawn), the GI50 with MDA-N was 95.1 µM (inactive).
On to `Cc1cccc(NS(=O)(=O)c2ccc3c(c2)OCCOCCOCCOCCO3)c1`, for which the GI50 with MDA-N, in the test on Hs-578T and in the test on BT-549 was > 100 µM (inactive) throughout.
For `O=C1c2ccccc2C(=O)C2C3c4ccccc4C(c4ccccc43)C12` (stereo not drawn), the values for the GI50 in the test on M19-MEL, in the test with LXFL 529 and with DLD-1 were 18.5 µM (inactive), 15.3 µM (inactive) and > 100 µM (inactive), respectively.
For the molecule `N#CCOc1ccc(/C=C/C(=O)c2ccc(Cl)cc2)cc1`, the GI50 in the test on MDA-N was 32.4 µM (inactive); in the test with Hs-578T, 18.2 µM (inactive); in the test on BT-549 it was 3.62 µM (inactive).
As for `C/C(=C\c1ccc(Cl)c(Cl)c1)[N+](=O)[O-]`, the GI50 in the test with Hs-578T was 3.24 µM (inactive).
Consider `CCCCCCCCCCCCCCCCNc1nc(=O)n(C2OC(C)C(O)C2O)cc1F` (stereo not drawn), for which the GI50 is 19.1 µM (inactive) in the test on MDA-N, 21.8 µM (inactive) with Hs-578T and 19.7 µM (inactive) in the test on BT-549.
As to `CCN(CC)c1ccc(C2NC(=O)c3ccccc3N2)cc1` (stereo not drawn), the GI50 in the test with MDA-N is 0.847 µM (active); with Hs-578T, 9.64 µM (inactive); with BT-549, > 100 µM (inactive).
Turning to `Cc1cc(S(=O)(=O)Nc2n[nH]c(Nc3ccccc3)n2)c(S)cc1Cl`, the GI50 in the test with Hs-578T and in the test on BT-549 was > 10 µM (inactive) in each case.
Take `CCOC(=O)c1sc2c(c1OC(=O)c1ccccc1)c(=O)n(-c1ccccc1)c(=S)n2-c1ccccc1`: in the test on Hs-578T, the GI50 is 23.6 µM (inactive).
On to `COc1cccc(OC)c1NC(=O)C(=O)Nn1c(NNC(=O)c2ccncc2)nc2ccccc2c1=O`, for which the GI50 in the test on MDA-N, in the test on Hs-578T and in the test on BT-549 was > 100 µM (inactive) each time.
For `CC(=O)NCCC1CN(C(=O)/C=C/I)c2ccccc21` (stereo not drawn), the results for the GI50 with MDA-N, in the test with Hs-578T and in the test with BT-549 were 3.08 µM (inactive), 9.66 µM (inactive) and 5.42 µM (inactive), respectively.
Consider `CSc1nc(Cl)c2c(n1)Sc1nc3ccccc3n1N=C2`, for which the results for the GI50 in the test with MDA-N, with Hs-578T and in the test with BT-549 were 22 µM (inactive), 26.7 µM (inactive) and 18.6 µM (inactive), respectively.
As for `C/C(Nc1ccc(Cl)cc1Cl)=C1/CCOC1=O`, the GI50 in the test with Hs-578T is 33.6 µM (inactive); in the test with BT-549, 24.1 µM (inactive).
As for `O=C1NC(=S)NC(=O)C1=Cc1cccc2cc3ccccc3cc12`, the values for the GI50 with MDA-N, in the test on Hs-578T and in the test with BT-549 were 2.19 µM (inactive), 2.97 µM (inactive) and 1.71 µM (inactive), respectively.
Take `Cn1c(=O)nc2n(CCO)ccnc-2c1=O`: the values for the GI50 in the test with MDA-N, with Hs-578T and in the test on BT-549 were > 100 µM (inactive), 91.4 µM (inactive) and > 100 µM (inactive), respectively.
For `CCN(CC)C(=O)Cn1c(C)cc2ccccc21`, the GI50 in the test on MDA-N, in the test with Hs-578T and in the test on BT-549 was > 100 µM (inactive) throughout.
With `O=c1[nH][nH]c(=O)[nH]1`, the GI50 in the test on XF498, with M19-MEL and in the test on DLD-1 was > 100 µM (inactive) in each case.
Take `O=C1C=CC2(C=C1)O[C@H](COCc1ccccc1)[C@@H](COCc1ccccc1)O2`: the GI50 in the test on MDA-N is 1.52 µM (inactive); with Hs-578T it was 1.75 µM (inactive); in the test on BT-549, 0.792 µM (active).
Regarding `CCC1CC(C)C(O)/C=C/C=C/CC(C)OC(=O)CC(O)C(OC)C1OC1OC(C)CC(O)(C(C)=O)C1O` (stereo not drawn), the GI50 in the test on MDA-N is 36.4 µM (inactive); in the test with Hs-578T, 19.7 µM (inactive); in the test on BT-549 it was 40.6 µM (inactive).
For `CC(C)[C@@H]1CC[C@@H](C)C[C@H]1OC(=O)c1c2n(c3ccccc13)C[C@H]1OC(C)(C)O[C@@H]21`, the GI50 is 19.7 µM (inactive) in the test on MDA-N, 16.7 µM (inactive) in the test on Hs-578T and 61.8 µM (inactive) with BT-549.
As for `CCOC(=O)C1=C(C(=O)OCC)SC2(S1)C(C(=O)OCC)=C(C(=O)OCC)Sc1c2ssc1=O`, the GI50 in the test on MDA-N is 1.97 µM (inactive); with Hs-578T it was 1.97 µM (inactive); in the test with BT-549, 1.94 µM (inactive).
Take `COC(=O)c1ccccc1C1=C([N+](=O)[O-])C(c2cccc(Br)c2)C(C#N)=C(N)O1` (stereo not drawn): the GI50 is 44.6 µM (inactive) in the test on MDA-N and 18.3 µM (inactive) in the test on Hs-578T.
Regarding `COc1ccc(/C=C2\N=C(c3ccccc3)N(NC3=NC(=O)CC(=O)N3)C2=O)cc1`, the GI50 in the test on MDA-N, in the test with Hs-578T and with BT-549 was > 100 µM (inactive) throughout.
Consider `CCOC(=O)c1[nH]c(Br)c(-c2ccc(OC)c(OC)c2)c1Br`, for which the GI50 with MDA-N is 0.00567 µM (active); with Hs-578T, 0.0369 µM (active); in the test with BT-549 it was 0.054 µM (active).
For `N#Cc1c(C#N)c(-c2ccccc2)n(-c2ccccc2)c1N`, in that order: > 100 µM (inactive), 21 µM (inactive) and 48.4 µM (inactive).
The matching figures for `Cc1c(O)c(=O)ccn1CCc1c[nH]c2ccccc12`: 23 µM (inactive), 11.7 µM (inactive) and 20.7 µM (inactive).

For the origin of these results see ChEMBL document CHEMBL1201862, “PubChem BioAssay data set” (2004).
